Data published in US7196110B2, “N-substituted tricyclic 3-aminopyrazoles as inhibitors for the treatment of cell proliferative disorders” (Janssen Phamaceutica N.V., priority 2002, dated 2007).
Read-outs that look alike come from different tables or passages of the source.

Experiments:
[1] = system: human coronary artery smooth muscle cells (HCASMC), PDGF-BB induced; test: Anti-cell proliferation in normal cells in the presence of PDGF stimulation (14C-thymidine incorporation); type: cell-based; details: read-out: IC50 on cell proliferation, HCASMC (PDGF-BB)
Method: The effect of compounds of the invention on cell proliferation in normal human primary cells, in particular, cryopreserved human coronary artery smooth muscle cells (HCASMC), in the presence of PDGF stimulation was tested based on incorporation of ^14C-thymidine into DNA of cells.
The following materials were purchased from their respective sources: Recombinant human PDGF beta homodimer, rhPDGF-BB (herein after referred as “PDGF-BB”) purchased from R&D System (Minneapolis, Minn., Cat. No 220-BB); Cryopreserved human coronary artery smooth muscle cells (HCASMC), tissue culture medium for HCASMC, and smooth muscle growth supplement (SMGS) purchased from Cascade Biologics (Portland, Oreg., HCASMC Cat. No: C-017-5C; Medium 231 Cat. No: M-231-500; and SMGS Cat. No: S-007-25); 96-well CytoStar tissue culture treated scintillating microplates purchased from Amersham (Piscataway, N.J., Cat. No: RPNQ0160); Methyl ^14C-thymidine at 56 mCi/mmol (250 μCi/2.5 mL) purchased from NEN (Cat. No.: NEC568); DMSO from Sigma (St. Louis, Mo., Cat. No: D-5879); Sterile reagent reservoirs from Costar (VWR International, Inc., West Chester, Pa., Cat. No: 4870); Dulbecco's PBS from Gibco (Cat. No: 14190-136); Backing tape white plate cover for bottom of CytoStar plate from Packard (Cat. No: 6005199)
HCASMC were seeded at approx. 4000 cells/well in a volume of 100 μl of complete Medium 231 with SMGS. Cells were grown for 48 hrs until they reach 80% confluence. They were then quiesced in SMGS-free Medium 231 for 24 hrs. Cell media were replenished with SMGS-free Medium 231 containing PDGF-BB at 50 ng/mL in a total volume of 100 μl/well; and 1 μl of test compounds in serially diluted concentrations in 100% DMSO was added to each well. For the maximum growth control wells, only 1 μl of 100% DMSO was added; for minimum growth (blank) wells, 1 μl of 10 mM cycloheximide was added to each well. After 24 hours incubation, 20 μl of ^14C-thymidine mix was added to each well and the ^14C-thymidine mix was made according the following regimen:
Cells were incubated for an additional 24 hrs in media containing test compounds, PDGF-BB and ^14C-thymidine. Then, the reaction mixture was discarded and the plate was washed 3 times each with 200 μl PBS. Subsequently, each well on the plate was filled with 200 μl of PBS. The top of the plate was sealed with transparent plate sealer and white plate backing sealers were applied to the bottom of plates. The retained ^14C inside each well was measured using a Packard TopCount.
The amount of ^14C retained in a well correlates to the proliferation of cells inside the well. […] In order to test the potency of inhibition of the present compound, IC50 of an individual compound on the inhibition of PDGF-BB induced HCASMC proliferation was measured using the above procedure. As used herein, said IC50 refers to the concentration of the test compound at which the amount of PDGF-BB induced HCASMC proliferation is reduced by one-half as compared to the maximum growth control wells without the compound.

[2] = system: human umbilical vein endothelial cells (HUVEC); test: Anti-cell proliferation in normal cells in the absence of PDGF stimulation (BrdU incorporation); type: cell-based; details: read-out: IC50 on cell proliferation, HUVEC (LSGS)
Method: The effect of compounds of the invention on cell proliferation in normal human primary cell, in particular, human umbilical vein endothelial cells (HUVEC), in the absence of PDGF stimulation was tested based on incorporation of BrdU into DNA of cells.
The following materials were purchased from their respective sources: HUVEC cells from Cascade Biologics, Cat No: C-015-10C; Medium 200 from Cascade Biologics, Cat No: M-200-500; Low serum growth supplements (LSGS) from Cascade Biologics, Cat No: S-003-10; F12-K medium from Gibco/BRL, Cat No: 21127-022; BrdU kit from Roche, Cat No: 1 647 229; and Trypsin/EDTA solution from Cascade Biologics, Cat No: R-001-100.
For propigation, HUVEC cells were grown in M-200 medium supplemented with LSGS. For studies, cells were detached with Trypsin/EDTA solution and washed three times with 10 mL of F12K (LS, low serum) medium and then centrifuged at 400×G for 5 minutes. F-12K (LS) medium is F-12K medium containing 0.2% heat-treated fetal bovine serum.
Cell concentration was adjusted to about 5×10^4 cells/mL in F-12K (LS) medium, and 200 μl (approx. 1×10^4 cells) were added to each well of a 96-well plate. Cells were then incubated for 16 to 20 hours at 37° C. under 95% air/5% CO2 to allow the cells to attach and become quiescent.
Cell proliferation was stimulated by adding 50 μL of a 1:10 dilution of LSGS in F12K (LS). Maximum-stimulated control wells were prepared by adding 50 μl of a 1:10 dilution of LSGS. Zero control wells contained 50 SL of F-12K (LS) medium only. Test compounds in 100% DMSO were added at a volume of 2.5 μl to achieve the desired final drug concentration. Replicates of eight wells per condition were tested. Cells were incubated at 37° C. overnight. On the next day 25 μL of BrdU (1:100 dilution of stock in F-12K (LS) medium) was added to each well.
Cells were incubated for an additional 20–24 hours. The medium was removed and the cells were fixed by adding 200 μL of FixDent solution (included in the BrdU kit) to each well and then incubated at room temperature for an additional 30 minutes. FixDent was removed by flicking and blotting the plates, and 100 μL of anti-BrdU-POD (included in the BrdU kit) diluted at a 1:100 dilution in antibody dilution solution (included in the BrdU kit) was added to each well. The diluted anti-BrdU-POD solution was prepared shortly before use. The plates were incubated at room temperature for 90 minutes.
The unbound antibody was removed by washing three times with Wash Solution (200 uL per wash). Wash Solution was prepared by making a 1:10 dilution of Wash Buffer Stock (included in the BrdU kit) with distilled water. Substrate solution (included in the BrdU kit) (100 uL) was added to each well and incubated for an additional 30–40 minutes. Plates were then read at 405 nm on a 96-well plate reader.
In order to test the potency of inhibition of the present compound, IC50 of an individual compound on the inhibition of PDGF-BB independent HUVEC proliferation was measured using the above procedure. As used herein, said IC50 refers to the concentration of the test compound at which the amount of HUVEC proliferation is reduced by one-half as compared to the maximum growth control wells without the compound.

[3] = PDGF-BB induced HCASMC proliferation

COC(=O)c1cccc(Nc2[nH]nc3c2Cc2cc(OC)c(OC)cc2-3)c1 [Compound 11, 3-(6,7-Dimethoxy-2,4-dihydro-indeno[1,2-c]pyrazol-3-ylamino)-benzoic acid methyl ester]
IC50 [1, 3]: 0.014 µM | IC50 ([2]; LSGS, PDGF-BB independent): 0.002 µM

COc1cc2c(cc1OC)-c1n[nH]c(Nc3ccccc3F)c1C2 [Compound 12, (6,7-Dimethoxy-2,4-dihydro-indeno[1,2-c]pyrazol-3-yl)-(2-fluoro-phenyl)-amine]
IC50 [1, 3]: 0.106 µM | IC50 ([2]; LSGS, PDGF-BB independent): 0.031 µM

COc1cc2c(cc1OC)-c1n[nH]c(Nc3cccc(F)c3)c1C2 [Compound 14, (3-Fluoro-phenyl)-(6,7-dimethoxy-2,4-dihydro-indeno[1,2-c]pyrazol-3-yl)-amine]
IC50 [1]: 0.003 µM | IC50 [2]: 4.87 µM

Cc1ccc2c(c1)-c1n[nH]c(Nc3ccccc3)c1C2 [Compound 22, (7-Methyl-2,4-dihydro-indeno[1,2-c]pyrazol-3-yl)-phenyl-amine]
IC50 [1, 3]: 0.278 µM | IC50 ([2]; LSGS, PDGF-BB independent): 2.15 µM

COc1cc2c(cc1OC)-c1n[nH]c(Nc3cccnc3)c1C2 [Compound 30, (6,7-Dimethoxy-2,4-dihydro-indeno[1,2-c]pyrazol-3-yl)-pyridin-3-yl-amine]
IC50 [1, 3]: 0.002 µM | IC50 ([2]; LSGS, PDGF-BB independent): > 1 µM

COc1ccc2c(c1)-c1n[nH]c(Nc3ccccc3)c1C2 [Compound 39, (7-Methoxy-2,4-dihydro-indeno[1,2-c]pyrazol-3-yl)-phenyl-amine]
IC50 [1, 3]: 0.009 µM

COc1cc2c(cc1OC)-c1n[nH]c(NCc3ccccc3)c1C2 [Compound 63, Benzyl-(6,7-dimethoxy-2,4-dihydro-indeno[1,2-c]pyrazol-3-yl)-amine]
IC50 [1, 3]: 0.014 µM | IC50 ([2]; LSGS, PDGF-BB independent): 2.46 µM

COc1cccc(Nc2[nH]nc3c2Cc2cc4c(cc2-3)OCO4)c1 [Compound 97, (2,9-Dihydro-5,7-dioxa-2,3-diaza-cyclopenta[a]-s-indacen-1-yl)-(3-methoxy-phenyl)-amine]
IC50 [1, 3]: 0.019 µM | IC50 ([2]; LSGS, PDGF-BB independent): 1.91 µM

CN1CCN(c2ccc3c(c2)Cc2c-3n[nH]c2Nc2cccc(Br)c2)CC1 [Compound 122, (3-Bromo-phenyl)-[6-(4-methyl-piperazin-1-yl)-2,4-dihydro-indeno[1,2-c]pyrazol-3-yl]-amine]
IC50 [1, 3]: 0.125 µM | IC50 ([2]; LSGS, PDGF-BB independent): 0.223 µM

COC(=O)c1cccc(Nc2[nH]nc3c2Cc2cc(OCCCN4CCCC4)c(OC)cc2-3)c1 [Compound 157, 3-[7-Methoxy-6-(3-pyrrolidin-1-yl-propoxy)-2,4-dihydro-indeno[1,2-c]pyrazol-3-ylamino]-benzoic acid methyl ester]
IC50 [1, 3]: 0.008 µM | IC50 ([2]; LSGS, PDGF-BB independent): 0.218 µM

COc1cc2c(cc1OC)-c1n[nH]c(NCc3cc(Cl)ccc3Cl)c1C2 [Compound 330, (2,5-Dichloro-benzyl)-(6,7-dimethoxy-2,4-dihydro-indeno[1,2-c]pyrazol-3-yl)-amine]
IC50 ([2]; LSGS, PDGF-BB independent): 0.049 µM
